Earlier results on one molecule are cited in patent publication US20180311201A1, “ORAL PHARMACEUTICAL COMPOSITION COMPRISING OTILONIUM BROMIDE AND SIMETHICONE WITH CERTAIN BULK DENSITY AND IMPROVED DISSOLUTION CHARACTERISTICS” (priority 2015, published 2018).

Regarding `CCCCCCCCOc1ccccc1C(=O)Nc1ccc(C(=O)OCC[N+](C)(CC)CC)cc1.[Br-]` [Otilonium bromide, N,N-Diethyl-N-methyl-2-(4-[2-(octyloxy)benzamido]benzoyloxy)ethanaminium bromide], the “Solubility in dimethyl sulfoxide” value (dimethyl sulfoxide) is given as over 25 mg/mL. Further, the Solubility in ethanol entry (ethanol) is listed as “soluble”. Besides, the Solubility in water (water) is 12 mg/mL.
